The CheMixHub ionic liquid set
Values joined by “and” are separate entries in the source; they are usually repeats but may differ in a detail not shown here. Identical values can stand only once.

Test: xn = mol fraction of the nth substance listed

CC[n+]1ccn(C)c1.F[B-](F)(F)F + CS(C)=O
Conditions	electrical conductivity	viscosity [mPa·s]
293.15 K, 100 kPa, x2 = 0.4781	–	19.1
298.1 K, 100 kPa, x1 = 0.021	0.55 S/m and 0.79 S/m	–
298.1 K, 100 kPa, x1 = 0.218	1.77 S/m	–
298.1 K, 100 kPa, x1 = 0.381	1.56 S/m	–
298.1 K, 100 kPa, x1 = 0.623	1.37 S/m	–
298.15 K, 100 kPa, x2 = 0.4098	–	19.1
303.15 K, 100 kPa, x2 = 0.7866	–	4.91
303.15 K, 101 kPa, x2 = 0.2996	–	17.26
303.15 K, 101 kPa, x2 = 0.6002	–	8.52
303.15 K, 101 kPa, x2 = 0.7996	–	4.395
313.15 K, 100 kPa, x2 = 0	–	24.8
313.15 K, 100 kPa, x2 = 0.2931	–	15.4
313.15 K, 101 kPa, x2 = 0.2996	–	12.88
323.15 K, 101 kPa, x2 = 0.4	–	8.2
323.15 K, 101 kPa, x2 = 0.9002	–	1.996
333.15 K, 101 kPa, x2 = 0.9002	–	1.71
343.15 K, 100 kPa, x2 = 0	–	11.7
343.15 K, 100 kPa, x2 = 0.2931	–	7.6
343.15 K, 100 kPa, x2 = 0.8959	–	1.61
353.15 K, 100 kPa, x2 = 0.4781	–	4.48

COCCCC[n+]1ccn(C)c1.NCC(=O)[O-] + CS(C)=O
100 kPa
Conditions	viscosity [mPa·s]
288.15 K, x1 = 0.4986	49.18
293.15 K, x1 = 0.4986	37.24
293.15 K, x1 = 0.6006	51.07
293.15 K, x1 = 0.7941	84.3
298.15 K, x1 = 0.7941	65.57
298.15 K, x1 = 1	97.2
303.15 K, x1 = 0.1009	4.18
303.15 K, x1 = 0.299	10.12
308.15 K, x1 = 0.1009	3.59
308.15 K, x1 = 0.299	8.41
308.15 K, x1 = 0.701	34.9
318.15 K, x1 = 0.1009	2.72

CC[n+]1ccn(C)c1.O=S(=O)([N-]S(=O)(=O)C(F)(F)F)C(F)(F)F + F[B-](F)(F)F.[Li+]
101 kPa, x1 = 1
Conditions	electrical conductivity [S/m]
288.15 K	0.611
298.15 K	0.883
333.15 K	2.18

CO + CCCC[n+]1ccn(C)c1.[Cl-]
Conditions	viscosity [mPa·s]
308.15 K, 101 kPa, x1 = 1	0.49

CO/N=C(\C(=O)N[C@@H]1C(=O)N2C(C(=O)[O-])=C(CSc3nc(=O)c(=O)[n-]n3C)CS[C@H]12)c1csc(N)n1.[Na+].[Na+] + CCCCCC[n+]1ccc(C)cc1.[Br-] + O
viscosity [mPa·s], 100 kPa
Conditions	x1 = 0.0003495, x2 = 0	x1 = 0.0008732, x2 = 0	x1 = 0.001391, x2 = 0	x1 = 0.002502, x2 = 0	x1 = 0.00312, x2 = 0	x1 = 0.003888, x2 = 0	x1 = 0.004767, x2 = 0	x1 = 0.005484, x2 = 0
288.15 K	1.196	1.273	1.365	1.604	1.745	1.964	2.205	2.45
293.15 K	1.053	1.12	1.2	1.399	1.527	1.701	1.918	2.122
298.15 K	0.935	0.994	1.062	1.231	1.348	1.495	1.674	1.858
303.15 K	0.829	0.885	0.945	1.1	1.195	1.323	1.48	1.638
308.15 K	0.744	0.794	0.849	0.982	1.07	1.184	1.322	1.455

CCCCCCCC[N+](CCCCCCCC)(CCCCCCCC)CCCCCCCC.[Br-] + CCCCCC(=O)O
Conditions	electrical conductivity [S/m]
298.1 K, 100 kPa, x1 = 0.333	4.5e-06

CC[n+]1ccn(C)c1.O=S(=O)([N-]S(=O)(=O)C(F)(F)F)C(F)(F)F + O=S(=O)([N-]S(=O)(=O)C(F)(F)F)C(F)(F)F.[Li+]
101 kPa, x1 = 1
Conditions	electrical conductivity [S/m]	viscosity [mPa·s]
288.15 K	0.611	–
298.15 K	0.883	–
313.15 K	–	19.26
333.15 K	2.18	–
343.15 K	–	9.46

CO + C[N+](C)(C)CCC[N+]1(C)CCCCC1.N#C[N-]C#N.N#C[N-]C#N
100 kPa, x2 = 0
Conditions	viscosity [mPa·s]
293.15 K	0.584
323.15 K	0.395

CC(=O)[O-].CCCCC[N+](CCCCC)(CCCCC)CCCCC + CCCCCCCCCCCCOS(=O)(=O)[O-].[Na+] + O
viscosity [mPa·s], 100 kPa
Conditions	x2 = 1.81e-06, x1 = 0.0001802	x2 = 3.62e-06, x1 = 0.0001802	x2 = 5.42e-06, x1 = 0.0001802	x2 = 7.23e-06, x1 = 0.0001802	x2 = 9.04e-06, x1 = 0.0001802	x2 = 1.085e-05, x1 = 0.0001802	x2 = 1.266e-05, x1 = 0.0001802	x2 = 1.446e-05, x1 = 0.0001802	x2 = 1.627e-05, x1 = 0.0001802	x2 = 1.808e-05, x1 = 0.0001802
293.15 K	1.002	1.003	1.005	1.005	1.007	1.007	1.007	1.007	1.007	1.008
298.15 K	0.89	0.893	0.894	0.896	0.898	0.9	0.902	0.902	0.904	0.904
303.15 K	0.784	0.786	0.789	0.792	0.793	0.796	0.796	0.796	0.798	0.796
308.15 K	0.701	0.703	0.704	0.706	0.707	0.707	0.708	0.708	0.709	0.709
313.15 K	0.636	0.638	0.641	0.643	0.645	0.646	0.646	0.647	0.648	0.648
318.15 K	0.587	0.587	0.589	0.59	0.591	0.593	0.593	0.597	0.598	0.599

CC[n+]1ccn(C)c1.F[B-](F)(F)F + O
298 K, 101 kPa
Conditions	electrical conductivity [S/m]
x2 = 0.78	8.27
x2 = 0.84	8.63

CC[n+]1ccn(C)c1.O=S(=O)([N-]S(=O)(=O)C(F)(F)F)C(F)(F)F + OCCOCCOCCOCCO
Conditions	viscosity [mPa·s]
298.15 K, 101 kPa, x2 = 0	32.3

CC(O)C(=O)[O-].CCC[N+]1(C)CCCCC1 + CC#N
298 K, 101 kPa
Conditions	electrical conductivity [S/m]
x2 = 0.77	2.16
x2 = 0.823	2.56
x2 = 0.832	2.64
x2 = 0.838	2.76
x2 = 0.846	2.85
x2 = 0.851	2.85
x2 = 0.859	2.88
x2 = 0.863	2.92
x2 = 0.869	2.97
x2 = 0.872	2.98
x2 = 0.877	2.98
x2 = 0.881	3.01
x2 = 0.885	3.03
x2 = 0.888	3.06
x2 = 0.891	3.04
x2 = 0.893	3.06
x2 = 0.897	3.09
x2 = 0.9	3.09
x2 = 0.907	3.09
x2 = 0.909	3.09
x2 = 0.92	3.04
x2 = 0.933	2.92
x2 = 0.952	2.68

CO + CCCC[N+]1(C)CCCC1.O=S(=O)([N-]S(=O)(=O)C(F)(F)F)C(F)(F)F
Conditions	viscosity [mPa·s]
293.15 K, 101 kPa, x2 = 0	0.74

CC(O)C(=O)[O-].CCC[N+]1(C)CCCC1 + CC#N
298 K, 101 kPa
Conditions	electrical conductivity [S/m]
x2 = 0.724	2.67
x2 = 0.749	2.89
x2 = 0.801	3.19
x2 = 0.825	3.33
x2 = 0.849	3.54
x2 = 0.873	3.56
x2 = 0.898	3.5
x2 = 0.91	3.5
x2 = 0.921	3.37
x2 = 0.929	3.24

CO + CCCC[n+]1ccn(C)c1.O=S(=O)([N-]S(=O)(=O)C(F)(F)F)C(F)(F)F
Conditions	viscosity [mPa·s]
298 K, 100 kPa, x2 = 0	0.534

CO + CC[n+]1ccn(C)c1.O=S(=O)([N-]S(=O)(=O)C(F)(F)F)C(F)(F)F
100 kPa, x1 = 1
Conditions	viscosity [mPa·s]
298.15 K	0.55
308.15 K	0.48
318.15 K	0.43

C[N+](CCO)(CCO)CCOCCO.[Cl-] + OCCO
101 kPa, x1 = 0.3322
Conditions	viscosity [mPa·s]
283.15 K	474
288.15 K	335
293.15 K	243.1
298.15 K	179.2
303.15 K	136.1
308.15 K	104.7
313.15 K	81.8
318.15 K	65.1
323.15 K	52.4
328.15 K	42.78
333.15 K	35.43
338.15 K	29.52
343.15 K	24.91
348.15 K	21.24
353.15 K	18.37

CC[n+]1ccn(C)c1.O=S(=O)([N-]S(=O)(=O)C(F)(F)F)C(F)(F)F + CCCCCCCCCCCC[n+]1ccn(C)c1.O=S(=O)([N-]S(=O)(=O)C(F)(F)F)C(F)(F)F
100 kPa, x2 = 0
Conditions	viscosity [mPa·s]
293 K	36
313 K	18
